Results taken from patent US5990151A, “Optically active substituted phenylalkylamine derivatives” (Taisho Pharmaceutical Co., Ltd., priority 1995, dated 1999).
Counter-ions that a name gives are not always drawn.

What was measured:
sigma 1 receptor [1] = biological target: T1, sigma 1 receptor (Cavia porcellus, UniProt Q60492); test: Receptor binding experiment, sigma 1, [3H](+)-pentazocine, membrane of total brains of guinea pigs; design: species or system Hartley guinea pigs; conditions: [3H](+)-pentazocine (2 nM), 25° C., 120 minutes, 50 mM Tris-HCl pH 7.4; non-specific: 10 μM haloperidol; read-out: Sigma 1 (IC50, concentration of the test drug which inhibits individual binding by 50%)
T1 construct: A membrane specimen prepared from the total brains of guinea pigs; from tissue; host or cells: total brains of Hartley guinea pigs (membrane specimen)
T1 sequence (Q60492 whole entry): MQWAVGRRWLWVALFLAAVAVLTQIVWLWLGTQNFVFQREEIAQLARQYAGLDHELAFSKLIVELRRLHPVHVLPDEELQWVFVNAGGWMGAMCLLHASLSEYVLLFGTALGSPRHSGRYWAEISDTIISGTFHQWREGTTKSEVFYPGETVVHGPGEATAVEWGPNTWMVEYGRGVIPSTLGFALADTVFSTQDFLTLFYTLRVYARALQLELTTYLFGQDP
Protocol: As experimental animals, Hartley guinea pigs were used. […] 121 (1994) using [^3 H] (+)-pentazocine (sigma 1) or [^3 H]1,3-di-o-tolylguanidine (DTG) (sigma 2) as a [^3 H]-labelled ligand.
A membrane specimen prepared from the total brains of guinea pigs, a [^3 H] ligand and a test drug were reacted in 50 mM Tris-HCl buffer (pH 7.4). For examining sigma 1, [^3 H](+)-pentazocine (2 nM) as a [^3 H] ligand was reacted at 25° C. for 120 minutes. For examining sigma 2, [^3 H] DTG (1 nM) as a [^3 H] ligand was reacted in the presence of 10^-7 M (+)-pentazocine at 25° C. for 90 minutes. After the completion of the reaction, the reaction solution was vacuum filtered through a glass filter (GF/B), and the radioactivity of the filter was determined with a liquid scintillation spectrometer.
The binding which occurred in the reaction in the presence 10 μM haloperidol was regarded as non-specific binding, and the difference obtained by subtracting non-specific binding from the total binding was regarded as specific binding. An inhibition curve was obtained by reacting a [^3 H] ligand at a specific concentration with a test drug at varied concentrations under the conditions described above. From this inhibition curve, the concentration of the test drug which inhibits individual binding by 50% (IC50) is obtained.

sigma 1 receptor [2] = conditions: cited from earlier work; for affinity for sigma 1 receptor: (agonist), Trends in Pharmacological Sciences, Vol. 13, pp. 85-86
humans = conditions: cited from earlier work

| Compound | IC50 (sigma 1 receptor [1]) [nM] | specificity to and affinity for sigma 1 receptor (sigma 1 receptor [2]; sigma antagonist, background art) | develop psychotic symptoms in humans (humans) | affinity for sigma 1 receptor (sigma 1 receptor [2]) |
| --- | --- | --- | --- | --- |
| CCCNC(CCC(C)C)Cc1ccc(OC)c(OCCc2ccccc2)c1 (single isomer, unassigned; (-)) [A, (-)-N-propyl-1-(3-methylbutyl)-2-[4-methoxy-3-(2-phenylethoxy)phenyl]ethylamine hydrochloride] | 0.46 |  |  |  |
| C[C@@H]1CN(CCCn2c3ccccc3c3ccccc32)C[C@H](C)N1 [Rimcazole] |  | not sufficient |  |  |
| CCCCC(Cc1ccc(OC)c(OCCc2ccccc2)c1)NCCC (single isomer, unassigned; (-)) [B, (-)-N-propyl-1-butyl-2-[4-methoxy-3-(2-phenylethoxy)-phenyl]ethylamine hydrochloride] | 0.73 |  |  |  |
| CC(C)=CCN1CCC2(C)c3cc(O)ccc3CC1C2C (stereo not shown) [pentazocine] |  |  | develop psychotic symptoms in humans | high affinity |
| C=CCN1CCC2(C)c3cc(O)ccc3CC1C2C (stereo not shown) [SKF10047, N-arylnormethazocine] |  |  | develop psychotic symptoms in humans | high affinity |
